# Data published in patent US20150266850A1 (E.I.DU PONT DE NEMOURS AND COMPANY, priority 2012, published 2015).
# Marks after values point to notes of the source that are not given here.
# Key:
# Type in all cases: in vivo
# Septoria nodorum = assay: Test D: wheat glume blotch, preventive spray on wheat seedlings, visual disease rating; conditions: 100 = 100% disease control; for pest or weed control at 40 ppm / pest or weed control at 50 ppm: Parastagonospora nodorum, 216 h
# Source text: (§1) General protocol for preparing test suspensions for Tests A-E: the test compounds were first dissolved in acetone in an amount equal to 11% of the final volume and then suspended at the desired concentration (in ppm) in acetone and purified water (50/50 mix by volume) containing 250 ppm of the surfactant Trem® 014 (polyhydric alcohol esters). The resulting test suspensions were then used in Tests A-E. Spraying a 200 ppm test suspension to the point of run-off on the test plants was the equivalent of a rate of 800 g/ha.
# (§2) The test suspension was sprayed to the point of run-off on wheat seedlings. The following day the seedlings were inoculated with a spore suspension of Septoria nodorum (the causal agent of wheat glume blotch) and incubated in a saturated atmosphere at 20° C. for 48 h, and then moved to a growth chamber at 20° C. for 7 days, after which time disease ratings were visually made.
# (§3) Results for Tests A-E are given in Table A. In the Table, a rating of 100 indicates 100% disease control and a rating of 0 indicates no disease control (relative to the controls). A dash (-) indicates no test results. All results are for 200 ppm except where followed by an “*”, which indicates 40 ppm or “**”, which indicates 50 ppm.
# [1] = system: Puccinia recondita f sp. tritici; assay: Test B: wheat leaf rust, preventive spray on wheat seedlings, visual disease rating; conditions: 100 = 100% disease control; for pest or weed control at 40 ppm / pest or weed control at 50 ppm: 192 h
# Source text: as §1
# as §2, with “Puccinia recondita f sp. tritici” for “Septoria nodorum”, “leaf rust)” for “glume blotch)”, “24” for “48”
# as §3
# [2] = system: Erysiphe graminis f. sp. tritici; assay: Test A: wheat powdery mildew, preventive spray on wheat seedlings, visual disease rating; conditions: 100 = 100% disease control; for pest or weed control at 40 ppm / pest or weed control at 50 ppm: Blumeria graminis, 192 h
# Source text: as §1
# The test suspension was sprayed to the point of run-off on wheat seedlings. The following day the seedlings were inoculated with a spore dust of Erysiphe graminis f. sp. tritici, (the causal agent of wheat powdery mildew) and incubated in a growth chamber at 20° C. for 8 days, after which time disease ratings were visually made.
# as §3
# Septoria tritici = assay: Test C: wheat leaf blotch, preventive spray on wheat seedlings, visual disease rating; conditions: 100 = 100% disease control; for pest or weed control at 40 ppm: Zymoseptoria tritici, 504 h
# Source text: as §1
# The test suspension was sprayed to the point of run-off on wheat seedlings. The following day the seedlings were inoculated with a spore suspension of Septoria tritici (the causal agent of wheat leaf blotch) and incubated in a saturated atmosphere at 24° C. for 48 h, and then moved to a growth chamber at 20° C. for 19 days, after which time disease ratings were visually made.
# as §3
Molecule,Test D disease control rating (Septoria nodorum; 40 ppm (*)),Test B disease control rating ([1]; 40 ppm (*)),Test A disease control rating ([2]; 40 ppm (*)),Test C disease control rating (Septoria tritici; 40 ppm (*)),other results
COC(=O)NCc1cc(-n2ccc(-c3ccc(C(F)(F)F)cc3C)n2)ccc1C [Cmpd 100],100* %,100* %,99* %,97* %,–
COC(=O)NCc1cc(-n2ccc(-c3ccc(C(F)(F)F)cc3OC)n2)ccc1C [Cmpd 101],100* %,100* %,99* %,94* %,–
COC(=O)NCc1cc(-n2ccc(-c3ccc(Br)cc3C)n2)ccc1C [Cmpd 102],100* %,100* %,99* %,98* %,–
COC(=O)NCc1cc(-n2ncc(-c3ccc(OCC#N)cc3C)n2)ccc1C [Cmpd 105],100* %,99* %,90* %,86* %,–
C#CCOc1ccc(-c2cnn(-c3ccc(C)c(CNC(=O)OC)c3)n2)c(C)c1 [Cmpd 106],100* %,100* %,99* %,98* %,–
CCOc1ccc(-c2cnn(-c3ccc(C)c(CNC(=O)OC)c3)n2)c(C)c1 [Cmpd 107],100* %,100* %,99* %,99* %,–
C#Cc1ccc(-c2ccn(-c3ccc(C)c(CNC(=O)OC)c3)n2)c(C)c1 [Cmpd 112],100* %,100* %,100* %,97* %,–
C=Cc1ccc(-c2ccn(-c3ccc(C)c(CNC(=O)OC)c3)n2)c(C)c1 [Cmpd 113],100* %,99* %,40* %,74* %,–
CCOc1ccc(-n2ccc(-c3ccc(C)c(CNC(=O)OC)c3)n2)c(C)c1 [Cmpd 120],–,–,–,–,Test B disease control rating ([1]; 50 ppm (**)): 100** %; Test A disease control rating ([2]; 50 ppm (**)): 100** %; Test C disease control rating (Septoria tritici; 50 ppm (**)): 99** %
COC(=O)NCc1cc(-c2ccn(-c3ccc(OC(C)C)cc3C)n2)ccc1C [Cmpd 121],–,–,–,–,Test B disease control rating ([1]; 50 ppm (**)): 100** %; Test A disease control rating ([2]; 50 ppm (**)): 100** %; Test C disease control rating (Septoria tritici; 50 ppm (**)): 98** %
COC(=O)NCc1cc(-c2ccn(-c3ccc(OC4CCCCC4)cc3C)n2)ccc1C [Cmpd 122],–,91* %,87* %,–,–
COC(=O)NCc1cc(-c2ccn(-c3ccc(C(C)(C)C)cc3C)n2)ccc1C [Cmpd 124],–,100* %,99* %,–,–
CCCOc1ccc(-n2ccc(-c3ccc(C)c(CNC(=O)OC)c3)n2)c(C)c1 [Cmpd 125],–,100* %,98* %,–,–
COCCOc1ccc(-n2ccc(-c3ccc(C)c(CNC(=O)OC)c3)n2)c(C)c1 [Cmpd 126],–,100* %,87* %,–,–
COC(=O)NCc1cc(-n2ccc(-c3ccc(C)cc3Br)n2)ccc1C [Cmpd 127],100* %,100* %,100* %,93* %,–
CCOc1ccc(-c2ccn(-c3ccc(C)c(CNC(=O)OC)c3)n2)c(C)c1 [Cmpd 128],100* %,100* %,99* %,98* %,–
CCOc1cc(F)ccc1-c1ccn(-c2ccc(C)c(CNC(=O)OC)c2)n1 [Cmpd 129],100* %,100* %,98* %,68* %,–

Molecule,Test D disease control rating (Septoria nodorum; 40 ppm (*)),Test B disease control rating ([1]; 40 ppm (*)),Test A disease control rating ([2]; 40 ppm (*)),Test C disease control rating (Septoria tritici; 40 ppm (*)),other results
COC(=O)NCc1cc(-n2ccc(-c3ccc(C)nc3OC)n2)ccc1C [Cmpd 131],100* %,100* %,99* %,97* %,–
COC(=O)NCc1cc(-n2ncc(-c3ccc(C(F)(F)F)cc3C(F)(F)F)n2)ccc1C [Cmpd 132],–,–,–,–,Test D disease control rating (Septoria nodorum; 50 ppm (**)): 100** %; Test B disease control rating ([1]; 50 ppm (**)): 99** %; Test A disease control rating ([2]; 50 ppm (**)): 100** %
COC(=O)NCc1cc(-c2ccn(-c3ccc(C(C)C)cc3C)n2)ccc1C [Cmpd 133],–,–,–,–,Test D disease control rating (Septoria nodorum; 50 ppm (**)): 100** %; Test B disease control rating ([1]; 50 ppm (**)): 100** %; Test A disease control rating ([2]; 50 ppm (**)): 100** %
COC(=O)NCc1cc(-c2ccn(-c3ccc(OCC(C)C)cc3C)n2)ccc1C [Cmpd 134],–,–,–,–,Test D disease control rating (Septoria nodorum; 50 ppm (**)): 100** %; Test B disease control rating ([1]; 50 ppm (**)): 100** %; Test A disease control rating ([2]; 50 ppm (**)): 99** %
CCOc1ccc(-c2ccn(-c3ccc(C)c(CNC(=O)OC)c3)n2)c(F)c1 [Cmpd 137],100* %,100* %,100* %,97* %,–
CCOc1cc(C)ccc1-c1ccn(-c2ccc(C)c(CNC(=O)OC)c2)n1 [Cmpd 138],100* %,100* %,99* %,95* %,–
COC(=O)NCc1cc(-n2ccc(-c3ccc(C(C)=O)cc3C)n2)ccc1C [Cmpd 140],100* %,100* %,91* %,94* %,–
COC(=O)NCc1cc(-n2ncc(-c3ccc(Br)cc3OC)n2)ccc1C [Cmpd 141],100* %,100* %,99* %,97* %,–
CCOc1ccc(-c2ccn(-c3ccc(C)c(CNC(=O)OC)c3)n2)c(C)n1 [Cmpd 142],100* %,100* %,99* %,99* %,–
COC(=O)NCc1cc(-n2ncc(-c3ccc(OC)cc3Br)n2)ccc1C [Cmpd 143],100* %,100* %,99* %,99* %,–
"COC(=O)NCc1cc(-c2ccn(-c3ccc(C)nc3C)n2)ccc1C [Compound 114, methyl N-[[5-[1-(2,6-dimethyl-3-pyridinyl)-1H-pyrazol-3-yl]-2-methylphenyl]methyl]carbamate]",–,–,–,–,pest or weed control at 40 ppm (Septoria nodorum; 40 ppm (*)): 100%; pest or weed control at 40 ppm ([1]; 40 ppm (*)): 100%; pest or weed control at 40 ppm ([2]; 40 ppm (*)): 90%; pest or weed control at 40 ppm (Septoria tritici; 40 ppm (*)): 86%
"COC(=O)NCc1cc(-c2ccn(-c3ccc(OC(F)(F)F)cc3C)n2)ccc1C [Compound 123, methyl N-[[2-methyl-5-[1-[2-methyl-4-(trifluoromethoxy)phenyl]-1H-pyrazol-3-yl]phenyl]methyl]carbamate]",–,–,–,–,pest or weed control at 40 ppm ([1]; 40 ppm (*)): 100%; pest or weed control at 40 ppm ([2]; 40 ppm (*)): 99%
"COC(=O)NCc1cc(-n2ccc(-c3ccc(C)nc3C)n2)ccc1C [Compound 130, methyl N-[[5-[3-(2,6-dimethyl-3-pyridinyl)-1H-pyrazol-1-yl]-2-methylphenyl]methyl]carbamate]",–,–,–,–,pest or weed control at 40 ppm (Septoria nodorum; 40 ppm (*)): 100%; pest or weed control at 40 ppm ([1]; 40 ppm (*)): 99%; pest or weed control at 40 ppm ([2]; 40 ppm (*)): 96%; pest or weed control at 40 ppm (Septoria tritici; 40 ppm (*)): 86%
COC(=O)NCc1cc(-n2ncc(-c3ccc(OC)nc3OC)[n+]2[O-])ccc1C [Compound 135],–,–,–,–,pest or weed control at 50 ppm (Septoria nodorum; 50 ppm (**)): 100%; pest or weed control at 50 ppm ([1]; 50 ppm (**)): 100%; pest or weed control at 50 ppm ([2]; 50 ppm (**)): 99%
"COC(=O)NCc1cc(-n2ncc(-c3ccc(OC)nc3OC)n2)ccc1C [Compound 136, methyl N-[[5-[4-(2,6-dimethoxy-3-pyridinyl)-2H-1,2,3-triazol-2-yl]-2-methylphenyl]methyl]carbamate]",–,–,–,–,pest or weed control at 50 ppm (Septoria nodorum; 50 ppm (**)): 100%; pest or weed control at 50 ppm ([1]; 50 ppm (**)): 100%; pest or weed control at 50 ppm ([2]; 50 ppm (**)): 99%
"methyl N-[[5-[1-(2,6-dimethoxy-3-pyridinyl)-1H-pyrazol-3-yl]-2-methylphenyl]-methyl]carbamate [Compound 116]",–,–,–,–,Test B disease control rating ([1]; 50 ppm (**)): 100** %; Test A disease control rating ([2]; 50 ppm (**)): 100** %; Test C disease control rating (Septoria tritici; 50 ppm (**)): 99** %
